Assay results: the supplement of paper PMC13386468

Tests used:
Assay in all cases: IC50 for competition of protein binding to Kinobeads
Conditions in all cases: assay detail: Kinobeads competition in P. falciparum blood-stage lysate
UniProt Q5MYR6 = biological target: UniProt Q5MYR6
UniProt Q8IB24 = biological target: UniProt Q8IB24
UniProt C0H5J6 = biological target: UniProt C0H5J6
UniProt Q8I5K4 = biological target: UniProt Q8I5K4
UniProt B9ZSI3 = biological target: UniProt B9ZSI3
UniProt Q8ILL2 = biological target: UniProt Q8ILL2
UniProt C6KTB3 = biological target: UniProt C6KTB3
UniProt Q8II00 = biological target: UniProt Q8II00
UniProt C0H564 = biological target: UniProt C0H564
UniProt C6KT76 = biological target: UniProt C6KT76
UniProt Q9U0I0 = biological target: UniProt Q9U0I0
UniProt Q8IEU2 = biological target: UniProt Q8IEU2
UniProt O77330 = biological target: UniProt O77330
UniProt C0H5L6 = biological target: UniProt C0H5L6
UniProt Q8I5S4 = biological target: UniProt Q8I5S4
UniProt Q8ILA4 = biological target: UniProt Q8ILA4
UniProt C0H5J9 = biological target: UniProt C0H5J9
UniProt Q6ZLZ9 = biological target: UniProt Q6ZLZ9
UniProt Q8IKV6 = biological target: UniProt Q8IKV6
UniProt Q8IIR7 = biological target: UniProt Q8IIR7
Sequence of UniProt Q8IIR7 (Q8IIR7 whole entry): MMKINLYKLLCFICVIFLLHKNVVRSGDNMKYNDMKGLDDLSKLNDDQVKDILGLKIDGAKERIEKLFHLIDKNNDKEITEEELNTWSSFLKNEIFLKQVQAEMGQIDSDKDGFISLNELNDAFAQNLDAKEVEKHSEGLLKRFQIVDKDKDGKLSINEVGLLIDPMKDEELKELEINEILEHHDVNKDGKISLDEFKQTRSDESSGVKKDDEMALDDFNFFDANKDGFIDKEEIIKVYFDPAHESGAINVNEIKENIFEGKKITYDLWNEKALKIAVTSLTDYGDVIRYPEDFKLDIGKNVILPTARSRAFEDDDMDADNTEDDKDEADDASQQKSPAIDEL

UniProt Q8IBN1 = biological target: UniProt Q8IBN1
UniProt Q8IIM4 = biological target: UniProt Q8IIM4
UniProt Q8IEE9 = biological target: UniProt Q8IEE9
UniProt Q8I6T2 = biological target: UniProt Q8I6T2
UniProt C0H4X1 = biological target: UniProt C0H4X1
UniProt Q8IB60 = biological target: UniProt Q8IB60
UniProt Q8I0V2 = biological target: UniProt Q8I0V2
UniProt Q8I546 = biological target: UniProt Q8I546
UniProt C6KTB9 = biological target: UniProt C6KTB9
UniProt Q8III5 = biological target: UniProt Q8III5
UniProt Q8I3K7 = biological target: UniProt Q8I3K7
UniProt C6KT64 = biological target: UniProt C6KT64
UniProt C6KTC6 = biological target: UniProt C6KTC6
UniProt Q8IKA6 = biological target: UniProt Q8IKA6
UniProt Q8II16 = biological target: UniProt Q8II16
UniProt Q76NM8 = biological target: UniProt Q76NM8
UniProt Q7KQL8 = biological target: UniProt Q7KQL8
Sequence of UniProt Q7KQL8 (Q7KQL8 whole entry): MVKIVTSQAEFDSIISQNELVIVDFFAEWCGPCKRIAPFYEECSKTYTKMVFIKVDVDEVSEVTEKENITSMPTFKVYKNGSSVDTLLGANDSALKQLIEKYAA

UniProt O96212 = biological target: UniProt O96212
UniProt Q8I291 = biological target: UniProt Q8I291
UniProt Q9TY98 = biological target: UniProt Q9TY98
UniProt Q8IBA0 = biological target: UniProt Q8IBA0
UniProt Q8IEQ1 = biological target: UniProt Q8IEQ1
UniProt Q8IBN5 = biological target: UniProt Q8IBN5
Q8IEK1 = Q8IEK1 (UniProt O96935)
Sequence of Q8IEK1 (O96935 whole entry, one chain of several): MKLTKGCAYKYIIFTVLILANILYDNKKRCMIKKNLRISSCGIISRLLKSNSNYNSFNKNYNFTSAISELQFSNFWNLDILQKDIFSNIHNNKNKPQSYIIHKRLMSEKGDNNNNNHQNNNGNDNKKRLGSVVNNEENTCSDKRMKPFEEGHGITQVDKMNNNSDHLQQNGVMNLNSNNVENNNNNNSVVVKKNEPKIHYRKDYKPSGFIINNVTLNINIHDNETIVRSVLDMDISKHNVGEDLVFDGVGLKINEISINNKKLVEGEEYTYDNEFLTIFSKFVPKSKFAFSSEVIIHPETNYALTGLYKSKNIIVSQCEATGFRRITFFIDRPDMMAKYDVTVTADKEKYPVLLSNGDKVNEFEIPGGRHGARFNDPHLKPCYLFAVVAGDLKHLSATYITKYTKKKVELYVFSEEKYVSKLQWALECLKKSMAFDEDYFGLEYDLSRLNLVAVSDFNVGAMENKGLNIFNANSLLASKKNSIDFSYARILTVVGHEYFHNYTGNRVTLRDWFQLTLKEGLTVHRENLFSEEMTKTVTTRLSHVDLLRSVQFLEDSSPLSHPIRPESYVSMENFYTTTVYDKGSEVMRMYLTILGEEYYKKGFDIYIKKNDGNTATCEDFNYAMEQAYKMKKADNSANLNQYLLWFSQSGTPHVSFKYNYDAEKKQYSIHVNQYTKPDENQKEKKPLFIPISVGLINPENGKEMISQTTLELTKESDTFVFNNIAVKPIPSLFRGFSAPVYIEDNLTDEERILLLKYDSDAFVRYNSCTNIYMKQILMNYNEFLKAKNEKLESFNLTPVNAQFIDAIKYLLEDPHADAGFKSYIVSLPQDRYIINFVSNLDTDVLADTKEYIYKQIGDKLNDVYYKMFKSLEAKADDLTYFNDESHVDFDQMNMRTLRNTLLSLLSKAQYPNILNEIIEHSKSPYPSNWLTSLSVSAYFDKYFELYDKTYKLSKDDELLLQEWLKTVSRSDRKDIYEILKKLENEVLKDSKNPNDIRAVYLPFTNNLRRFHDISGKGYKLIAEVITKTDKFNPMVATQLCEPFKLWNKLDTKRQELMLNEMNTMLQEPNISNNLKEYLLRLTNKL

UniProt Q8IAX6 = biological target: UniProt Q8IAX6
UniProt O96210 = biological target: UniProt O96210
UniProt Q8ID42 = biological target: UniProt Q8ID42
UniProt Q8IE50 = biological target: UniProt Q8IE50
UniProt C0H530 = biological target: UniProt C0H530
UniProt Q8IBL5 = biological target: UniProt Q8IBL5
UniProt Q8ILH5 = biological target: UniProt Q8ILH5

Measured: IC50
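Also: native unpurified kinases from lysate captured on beads bearing immobilized kinase inhibitors, with bead-bound kinases quantified by mass spectrometry across compound doses.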

O=c1[nH]c2ccc(Cl)cc2c(NC2CN3CCC2CC3)c1-c1nc2ccccc2[nH]1 (stereo unspecified) [CHIR-124]
> 20 µM: UniProt Q5MYR6 | UniProt Q8IB24 | UniProt C0H5J6 | UniProt Q8I5K4 | UniProt B9ZSI3 | UniProt Q8ILL2 | UniProt C6KTB3 | UniProt Q8II00 | UniProt C0H564 | UniProt C6KT76 | UniProt Q9U0I0 | UniProt Q8IEU2 | UniProt O77330 | UniProt C0H5L6 | UniProt Q8I5S4 | UniProt Q8ILA4 | UniProt C0H5J9 | UniProt Q6ZLZ9 | UniProt Q8IKV6 | UniProt Q8IIR7 | UniProt Q8IBN1 | UniProt Q8IIM4 | UniProt Q8IEE9 | UniProt Q8I6T2 | UniProt C0H4X1 | UniProt Q8IB60 | UniProt Q8I0V2 | UniProt Q8I546 | UniProt C6KTB9 | UniProt Q8III5 | UniProt Q8I3K7 | UniProt C6KT64 | UniProt C6KTC6 | UniProt Q8IKA6 | UniProt Q8II16 | UniProt Q76NM8 | UniProt Q7KQL8 | UniProt O96212 | UniProt Q8I291 | UniProt Q9TY98 | UniProt Q8IBA0 | UniProt Q8IEQ1 | UniProt Q8IBN5 | Q8IEK1 | UniProt Q8IAX6 | UniProt O96210 | UniProt Q8ID42 | UniProt Q8IE50 | UniProt C0H530 | UniProt Q8IBL5 | UniProt Q8ILH5
